Values belong to the compound of their own block, whether it stands above or below them.
How the values were obtained:
[1] = Stability in Simulated Intestinal Fluid (SIF); type: in vitro ADME; set-up: key: % parent compound remaining relative to 0-minute sample
Method in brief: (§1)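 LC-MS/MS read-out of intact compound (2 μg/mL final) over 60 minutes at 37° C; gastric medium pH 1.2 with pepsin, intestinal medium pH 6.8 with pancreatin. Half-life from ln(% remaining) against time.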

[2] = Stability in Simulated Gastric Fluid (SGF); type: in vitro ADME; set-up: key: % parent compound remaining relative to 0-minute sample
Method in brief: as §1

[3] = Caco-2 Permeability Assay; type: in vitro ADME, human; conditions: human
Method in brief: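 Bidirectional transport at 37 °C for 90 min, 10 μM donor concentration, with or without Pgp inhibitor, across 21-day Caco-2 monolayers with TEER >600 […] in HEPES-buffered HBSS, pH 7.4. LC-MS/MS of donor and receiver samples gives Papp, B→A/A→B efflux ratio and mass recovery.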

[4] = Plasma Stability; type: in vitro ADME, human
Method in brief: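 Parent compound quantified by LC-MS/MS after acetonitrile precipitation, reported as percent of control remaining (triplicate). Incubation: 1 hour, 37° C, fresh human plasma, compound at 1 μM.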

[5] = simulated intestinal fluid, at 1 h
[6] = simulated gastric fluid, at 1 h
[7] = Caco-2, pH 7.4, Caco-2 monolayer
[8] = % remaining at 1 h in simulated intestinal fluid, the 17th table
[9] = % remaining at 1 h in simulated gastric fluid, the 17th table
[10] = Caco-2, pH 7.4, Caco-2 monolayer, the 17th table
[11] = % remaining at 1 h in human plasma, the 17th table
[12] = simulated intestinal fluid, remaining at 1 h
[13] = simulated gastric fluid, remaining at 1 h
[14] = bare number, no % and no time given
[15] = Caco-2, pH 7.4, donor 10 μM, 90 minutes, 37° C., direction not given
[16] = % remaining at 1 h, human plasma, 1 μM, 37° C.
[17] = bare number, unit or time not given

SIF [1, 5]: 8% remaining | SGF [2, 6]: 34% remaining | Papp at 90 min, 10 µM [3, 7]: < 0.33 ×10⁻⁶ cm/s | human Plasma stability ([4]; human plasma, at 1 h): 2% remaining
Structure (SMILES): CC(C)OCCn1c(=S)[nH]c(=O)c2c1ccn2COC(=O)Oc1cccc(F)c1 [Example 234]

SIF [1, 8]: 78% remaining | SGF [2, 9]: 98% remaining | Papp at 90 min, 10 µM [3, 10]: 24.3 ×10⁻⁶ cm/s | human Plasma stability [4, 11]: 99% remaining
Structure (SMILES): CCCNC(=O)n1ccc2c1c(=O)[nH]c(=S)n2CCOC(C)C [Example 225]

SIF ([1]; % remaining at 1 h in simulated intestinal fluid, the 15th table): 100% @ 1 h | SGF ([2]; % remaining at 1 h in simulated gastric fluid, the 15th table): 86% @ 1 h | Papp at 90 min, 10 µM ([3]; Caco-2, pH 7.4, Caco-2 monolayer, the 15th table): 7.23 ×10⁻⁶ cm/s | human Plasma stability ([4]; % remaining at 1 h in human plasma, the 15th table): 98% @ 1 h
Structure (SMILES): CC(C)CNC(=O)OCSc1nc(=O)c2[nH]ccc2n1CCOC(C)C [Example 186]

SIF [1, 5]: 2% remaining | SGF [2, 6]: 74% remaining | Papp at 90 min, 10 µM [3, 7]: 0.723 ×10⁻⁶ cm/s | human Plasma stability ([4]; human plasma, at 1 h): 1% remaining
Structure (SMILES): Cc1cccc(OC(=O)OCn2ccc3c2c(=O)[nH]c(=S)n3CCOC(C)C)c1 [Example 237]

Structure (SMILES): CC(C)OCCn1c(=S)[nH]c(=O)c2c1ccn2COC(=O)CCCOC(=O)[C@@H](Cc1ccccc1)NC(=O)OC(C)(C)C [Example 361, {4-oxo-1-[2-(propan-2-yloxy)ethyl]-2-sulfanylidene-1H,2H,3H,4H,5H-pyrrolo[3,2-d]pyrimidin-5-yl}methyl 4-{[(2R)-2-{[(tert-butoxy)carbonyl]amino}-3-phenylpropanoyl]oxy}butanoate]
SIF [1, 12]: 9% remaining | SGF [2, 13]: 95% remaining | Papp at 90 min, 10 µM [3, 7]: < 0.31 ×10⁻⁶ cm/s | human Plasma stability ([4]; human plasma, remaining at 1 h): 8% remaining

SIF [1, 5]: 1% remaining at | SGF [2, 6]: 53% remaining | Papp at 90 min, 10 µM [3, 7]: 0.59 ×10⁻⁶ cm/s | human Plasma stability ([4]; human plasma, at 1 h): 1% remaining
Structure (SMILES): Cc1ccc(OC(=O)OCn2ccc3c2c(=O)[nH]c(=S)n3CCOC(C)C)cc1 [Example 236]

SIF [1, 14]: 95 | SGF [2, 14]: 100 | Papp at 90 min, 10 µM [3, 15]: 18.8 ×10⁻⁶ cm/s | human Plasma stability [4, 16]: 99% remaining
Structure (SMILES): CC(C)OCCn1c(SCOC(=O)N(C)CC(F)(F)F)nc(=O)c2c1ccn2COC(=O)N(C)CC(F)(F)F [Example 95, {2-[{{[methyl(2,2,2-trifluoroethyl)carbamoyl]oxy}methyl)sulfanyl]-4-oxo-1-[2-(propan-2-yloxy)ethyl]-1H, 4H,5H-pyrrolo[3,2-d]pyrimidin-5-yl}methyl N-methyl-N-(2,2,2-trifluoroethyl)carbamate]

Structure (SMILES): CC(C)OCCn1c(=S)n(COC(=O)[C@H](C)N)c(=O)c2c1ccn2COC(=O)[C@H](C)N.O=C(O)C(F)(F)F.O=C(O)C(F)(F)F [Example 289, bis(trifluoroacetic acid) [3-({[(2S)-2-aminopropanoyl]oxy}methyl)-4-oxo-1-[2-(propan-2-yloxy)ethyl]-2-sulfanylidene-1H,2H,3H,4H,5H-pyrrolo[3,2-d]pyrimidin-5-yl]methyl (2S)-2-aminopropanoate]
SIF ([1]; % remaining @ 1 h): 97% @ 1 h | SGF ([2]; % remaining @ 1 h): 100% @ 1 h | Papp at 90 min, 10 µM ([3]; Caco-2, pH 7.4): < 0.366 ×10⁻⁶ cm/s | human Plasma stability ([4]; % remaining @ 1 h): 39% @ 1 h

Structure (SMILES): CC(C)OCCn1c(=S)[nH]c(=O)c2c1ccn2COC(=O)[C@@H](N)C(C)C.O=C(O)C(F)(F)F [Example 296, trifluoroacetic acid {4-oxo-1-[2-(propan-2-yloxy)ethyl]-2-sulfanylidene-1H,2H,3H,4H,5H-pyrrolo[3,2-d]pyrimidin-5-yl}methyl (2S)-2-amino-3-methylbutanoate]
SIF ([1]; % remaining @ 1 h): 43% @ 1 h | SGF ([2]; % remaining @ 1 h): 97% @ 1 h | Papp at 90 min, 10 µM ([3]; Caco-2, pH 7.4): 1.18 ×10⁻⁶ cm/s | human Plasma stability ([4]; % remaining @ 1 h): 12% @ 1 h

SIF [1, 5]: 97% remaining | SGF [2, 6]: 99% remaining | Papp at 90 min, 10 µM [3, 7]: 15.4 ×10⁻⁶ cm/s | human Plasma stability ([4]; human plasma, at 1 h): 83% remaining
Structure (SMILES): CC(C)OCCn1c(SCOC(=O)N(C)c2ccccc2Cl)nc(=O)c2[nH]ccc21 [Example 240]

SIF ([1]; simulated intestinal fluid, after 1 h): 9% remaining | SGF ([2]; simulated gastric fluid, after 1 h): 99% remaining | Papp at 90 min, 10 µM [3, 7]: 0.25 ×10⁻⁶ cm/s | human Plasma stability ([4]; human plasma, after 1 h): 88% remaining
Structure (SMILES): CC(C)OCCn1c(=S)[nH]c(=O)c2c1ccn2COC(=O)CCCCCCCCCCCCCCC(=O)OC(C)C [Example 256]

SIF [1, 17]: 6 | SGF [2, 17]: 93 | Papp at 90 min, 10 µM ([3]; Caco-2, pH 7.4): 1.82 ×10⁻⁶ cm/s | human Plasma stability ([4]; % remaining @ 1 h): 73% remaining
Structure (SMILES): CC(C)OCCn1c(SCO)nc(=O)c2[nH]ccc21 [Example 336, 2-[(hydroxymethyl)sulfanyl]-1-[2-(propan-2-yloxy)ethyl]-1H,4H,5H-pyrrolo[3,2-d]pyrimidin-4-one]

Structure (SMILES): CC(C)OCCn1c(=S)[nH]c(=O)c2c1ccn2COC(=O)[C@@H](C)N.O=C(O)C(F)(F)F [Example 292, trifluoroacetic acid {4-oxo-1-[2-(propan-2-yloxy)ethyl]-2-sulfanylidene-1H,2H,3H,4H,5H-pyrrolo[3,2-d]pyrimidin-5-yl}methyl (2R)-2-aminopropanoate]
SIF ([1]; % remaining @ 1 h): 7% @ 1 h | SGF ([2]; % remaining @ 1 h): 99% @ 1 h | Papp at 90 min, 10 µM ([3]; Caco-2, pH 7.4): < 1.06 ×10⁻⁶ cm/s | human Plasma stability ([4]; % remaining @ 1 h): 20% @ 1 h

SIF [1, 14]: 38 | SGF [2, 14]: 99 | Papp at 90 min, 10 µM [3, 15]: 16.8 ×10⁻⁶ cm/s | human Plasma stability [4, 16]: 0% remaining
Structure (SMILES): COCCOCCC(=O)OCn1ccc2c1c(=O)[nH]c(=S)n2CCOC(C)C [Example 93, {4-oxo-1-[2-(propan-2-yloxy)ethyl]-2-sulfanylidene-1H,2H,3H,4H,5H-pyrrolo[3,2-d]pyrimidin-5-yl}methyl 3-(2-methoxyethoxy)propanoate]

Structure (SMILES): CC(C)OCCn1c(=S)[nH]c(=O)c2c1ccn2COC(=O)CCCCOC(=O)CN.O=C(O)C(F)(F)F [Example 330, trifluoroacetic acid {4-oxo-1-[2-(propan-2-yloxy)ethyl]-2-sulfanylidene-1H,2H,3H,4H,5H-pyrrolo[3,2-d]pyrimidin-5-yl}methyl 5-[(2-aminoacetyl)oxy]pentanoate]
SIF ([1]; % remaining @ 1 h): 7% @ 1 h | SGF ([2]; % remaining @ 1 h): 84% @ 1 h | Papp at 90 min, 10 µM ([3]; Caco-2, pH 7.4): 0.641 ×10⁻⁶ cm/s | human Plasma stability ([4]; % remaining @ 1 h): 2% @ 1 h

Structure (SMILES): CC(C)OCCn1c(=S)[nH]c(=O)c2c1ccn2COC(=O)CCNC(=O)[C@@H](N)Cc1c[nH]c2ccccc12.O=C(O)C(F)(F)F [Example 52]
SIF ([1]; % remaining at 1 h in simulated intestinal fluid): 81% remaining | SGF ([2]; % remaining at 1 h in simulated gastric fluid): 95% remaining | Papp at 90 min, 10 µM [3, 7]: 0.23 ×10⁻⁶ cm/s | human Plasma stability ([4]; % remaining at 1 h in human plasma): 61% remaining

Structure (SMILES): CC(C)OCCn1c(=S)n(COC(=O)CCCCOC(=O)CN)c(=O)c2c1ccn2COC(=O)CCCCOC(=O)CN.O=C(O)C(F)(F)F.O=C(O)C(F)(F)F [Example 332, bis (trifluoroacetic acid) {3-[{{5-[(2-aminoacetyl)oxy]pentanoyl}oxy)meth-yl]-4-oxo-1-[2-(propan-2-yloxy)ethyl]-2-sulfanylidene-1H,2H,3H,4H,5H-pyrrolo[3,2-d]pyrimidin-5-yl}methyl 5-[(2-aminoacetyl)oxy]pentanoate]
SIF ([1]; % remaining @ 1 h): 4% @ 1 h | SGF ([2]; % remaining @ 1 h): 91% @ 1 h | Papp at 90 min, 10 µM ([3]; Caco-2, pH 7.4): < 0.073 ×10⁻⁶ cm/s | human Plasma stability ([4]; % remaining @ 1 h): 4% @ 1 h

SIF [1, 5]: 33% remaining | SGF [2, 6]: 99% remaining | Papp at 90 min, 10 µM [3, 7]: 0.456 ×10⁻⁶ cm/s | human Plasma stability ([4]; human plasma, at 1 h): 2% remaining
Structure (SMILES): CCOC(=O)n1ccc2c1c(=O)[nH]c(=S)n2CCOC(C)C [Example 230]

Structure (SMILES): CC(C)OCCn1c(=S)[nH]c(=O)c2c1ccn2COC(=O)CCCCOC(=O)[C@@H](NC(=O)OC(C)(C)C)C(C)C [Example 333, {4-oxo-1-[2-(propan-2-yloxy)ethyl]-2-sulfanylidene-1H,2H,3H,4H,5H-pyrrolo[3,2-d]pyrimidin-5-yl}methyl 5-{[(2S)-2-{[(tert-butoxy)carbonyl]amino}-3-methylbutanoyl]oxy}pentanoate]
SIF ([1]; % remaining @ 1 h): 4% @ 1 h | SGF ([2]; % remaining @ 1 h): 98% @ 1 h | Papp at 90 min, 10 µM ([3]; Caco-2, pH 7.4): < 0.072 ×10⁻⁶ cm/s | human Plasma stability ([4]; % remaining @ 1 h): 5% @ 1 h

Structure (SMILES): CC(C)OCCn1c(=S)[nH]c(=O)c2c1ccn2COC(=O)[C@H](NC(=O)OC(C)(C)C)C(C)C [Example 298, {4-oxo-1-[2-(propan-2-yloxy)ethyl]-2-sulfanylidene-1H,2H,3H,4H,5H-pyrrolo[3,2-d]pyrimidin-5-yl}methyl (2R)-2-{[(tert-butoxy)carbonyl]amino}-3-methylbutanoate]
SIF ([1]; % remaining @ 1 h): 59% @ 1 h | SGF ([2]; % remaining @ 1 h): 99% @ 1 h | Papp at 90 min, 10 µM ([3]; Caco-2, pH 7.4): 33.5 ×10⁻⁶ cm/s | human Plasma stability ([4]; % remaining @ 1 h): 99% @ 1 h

SIF [1, 8]: 2% remaining | SGF [2, 9]: 100% remaining | Papp at 90 min, 10 µM [3, 10]: 0.65 ×10⁻⁶ cm/s | human Plasma stability [4, 11]: 74% remaining
Structure (SMILES): CCCCCOC(=O)OCn1c(=O)c2c(ccn2COC(=O)OCCCCC)n(CCOC(C)C)c1=S [Example 218]

SIF [1, 12]: 25% remaining | SGF [2, 13]: 99% remaining | Papp at 90 min, 10 µM [3, 7]: 11.3 ×10⁻⁶ cm/s | human Plasma stability ([4]; human plasma, remaining at 1 h): 5% remaining
Structure (SMILES): CC(C)OCCn1c(=S)[nH]c(=O)c2c1ccn2COC(=O)CCCOC(=O)[C@H](N)C(C)C [Example 356, trifluoroacetic acid 4-oxo-4-({4-oxo-1-[2-(propan-2-yloxy)ethyl]-2-sulfanylidene-1H,2H,3H,4H,5H-pyrrolo[3,2-d]pyrimidin-5-yl}methoxy)butyl (2R)-2-amino-3-methylbutanoate]
